Assay results: US6048874A, “Parenteral metolazone formulations” (priority 1999, dated 2000)
In brackets after ≈: the same amount, converted by molar mass. Several values for one entry are separate records, joined by “and”; a condition that tells them apart may be missing. Identical values can stand only once.

Tests used:
[1] = Apparent equilibrium solubility, spectrophotometric assay at 346 nm; type: physicochemical; settings: aqueous propylene glycol/ethanol, organic solvent or mixture
Experimental: The apparent equilibrium solubility of metolazone in an aqueous solvent of 65% w/v propylene glycol/15% w/v ethyl alcohol (95% v/v in water) was determined as described below.
A 250 mg quantity of metolazone was equilibrated with 20 ml of a solvent consisting of 65% w/v propylene glycol, 15% w/v ethyl alcohol (95% v/v in water), and water for 24 hours at room temperature on a wrist action shaker. […] After equilibration, the solution was filtered through a 0.45 μm filter, diluted, and assayed spectrophotometrically at 346 nm.

[2] = Apparent equilibrium solubility redetermined, HPLC analysis; type: physicochemical; settings: 65% w/v propylene glycol/15% w/v ethyl alcohol/water
Experimental: (§1) The apparent equilibrium solubility was redetermined more accurately as follows. A 300 g quantity of ethyl alcohol (95% v/v in water) and 1300 g of propylene glycol were added to a 2000 ml volumetric flask and mixed well. Next, purified water was added q.s. to 2000 ml. This is the solvent.
(§2) Nine 30 ml amber bottles were filled with 25 ml of the solvent and 400 mg of metolazone and mixed on a wrist arm shaker for 24 hours (3 bottles), 48 hours (3 bottles), and 72 hours (3 bottles). The samples were filtered through a membrane filter (Whatman 25 mm 601X Nylon Filter (0.45 μm)). The concentration of the samples was determined by HPLC and by UV analysis.
The sample concentrations were analyzed by an HPLC system (HP 1100, available from Hewlett-Packard, Palo Alto, Calif.) equipped with a C18 column and an UV detector set at 230 nm. The mobile phase consisted of water and methanol at a ratio of 62/38 (v/v) and was used at a flow rate of 1.5 ml/minute.

[3] = Apparent equilibrium solubility redetermined, UV analysis; type: physicochemical; settings: 65% w/v propylene glycol/15% w/v ethyl alcohol/water, UV 235 nm
Experimental: as §1, §2
The sample concentrations were measured by the UV absorbance at 235 nm using an UV/VIS spectrophotometer (HP 8453, available from Hewlett-Packard, Palo Alto, Calif.).

[4] = cited from earlier work
[5] = cited from earlier work; remark: listed apart in the source
[6] = diuretic; cited from earlier work
[7] = cited from earlier work; remark: listed apart in the source

Cc1ccccc1N1C(=O)c2cc(S(N)(=O)=O)c(Cl)cc2NC1C (stereo not shown) [Metolazone, 7-chloro-1,2,3,4-tetrahydro-2-methyl-3-(2-methylphenyl)-4-oxo-6-quinazolinesulfonamide]
solubility thermodynamic at 24 h ([1]; 65% w/v propylene glycol, 15% w/v ethyl alcohol (95% v/v in water), water, 24 hours, room temperature, spectrophotometric 346 nm): 8360 µg/mL (≈ 22.9 mM)
solubility thermodynamic ([1]; aqueous 65% w/v propylene glycol, 15% w/v ethyl alcohol, read-out: apparent equilibrium solubility limit): ~8000 µg/mL (≈ 21.9 mM)
solubility thermodynamic at 24 h ([2]; aqueous propylene glycol/ethanol, organic solvent or mixture, shaken 24 hrs, read-out: Concentration of Metolazone, HPLC (apparent equilibrium solubility)): 7900 µg/mL (≈ 21.6 mM)
solubility thermodynamic at 48 h ([2]; aqueous propylene glycol/ethanol, organic solvent or mixture, shaken 48 hrs, read-out: Concentration of Metolazone, HPLC (apparent equilibrium solubility)): 7810 µg/mL (≈ 21.3 mM)
solubility thermodynamic at 72 h ([2]; aqueous propylene glycol/ethanol, organic solvent or mixture, shaken 72 hrs, read-out: Concentration of Metolazone, HPLC (apparent equilibrium solubility)): 7610 µg/mL (≈ 20.8 mM)
Concentration of Metolazone, HPLC (apparent equilibrium solubility) ([2]; shaken 24 hrs, 1440 min): 7730 µg/mL and 7650 µg/mL
Concentration of Metolazone, HPLC (apparent equilibrium solubility) ([2]; shaken 48 hrs, 2880 min): 7680 µg/mL and 7660 µg/mL
Concentration of Metolazone, HPLC (apparent equilibrium solubility) ([2]; shaken 72 hrs, 4320 min): 7680 µg/mL and 7910 µg/mL
solubility thermodynamic at 24 h ([3]; aqueous propylene glycol/ethanol, organic solvent or mixture, shaken 24 hrs, read-out: Concentration of Metolazone, UV (apparent equilibrium solubility)): 8090 µg/mL (≈ 22.1 mM)
solubility thermodynamic at 48 h ([3]; aqueous propylene glycol/ethanol, organic solvent or mixture, shaken 48 hrs, read-out: Concentration of Metolazone, UV (apparent equilibrium solubility)): 7580 µg/mL (≈ 20.7 mM)
solubility thermodynamic at 72 h ([3]; aqueous propylene glycol/ethanol, organic solvent or mixture, shaken 72 hrs, read-out: Concentration of Metolazone, UV (apparent equilibrium solubility)): 7300 µg/mL (≈ 20 mM)
Concentration of Metolazone, UV (apparent equilibrium solubility) ([3]; shaken 24 hrs, 1440 min): 7540 µg/mL and 7410 µg/mL
Concentration of Metolazone, UV (apparent equilibrium solubility) ([3]; shaken 48 hrs, 2880 min): 7560 µg/mL and 7430 µg/mL
Concentration of Metolazone, UV (apparent equilibrium solubility) ([3]; shaken 72 hrs, 4320 min): 7310 µg/mL and 7550 µg/mL
solubility in water [4]: about 0.02 mg/ml
pH of aqueous solution sufficient to solubilize metolazone ([5]; aqueous solution, alkali hydroxides): about 11
chemical stability at high pH ([5]; pH of about 11): chemically unstable
potency, on a weight basis, vs quinethazone or hydrochlorothiazide [6]: greater potency
decomposition when exposed to light [7]: decompose when exposed to light
